Data as given in ChEMBL document CHEMBL4190350, “Synthesis, antimicrobial, antiquorum-sensing, antitumor and cytotoxic activities of new series of cyclopenta(hepta)[b]thiophene and fused cyclohepta[b]thiophene analogs” (Eur J Med Chem, 2017).
Values after ≈ are worked out from the molar mass of the structure shown.

Key:
Candida albicans = test: Antimicrobial activity against Candida albicans incubated for 48 hrs by disc diffusion assay; assay type: functional
Escherichia coli [1] = test: Antimicrobial activity against Escherichia coli incubated for 24 hrs by disc diffusion assay; assay type: functional
Bacillus cereus [2] = test: Antimicrobial activity against Bacillus cereus incubated for 24 hrs by disc diffusion assay; assay type: functional
Staphylococcus aureus = test: Antimicrobial activity against Staphylococcus aureus incubated for 24 hrs by disc diffusion assay; assay type: functional
[3] = tested on: Chromobacterium violaceum; test: Inhibition of quorum sensing system in Chromobacterium violaceum ATCC 12472 assessed as inhibition of violacein production at 5 mg/mL incubated for 48 hrs
HepG2 = test: Antitumor activity against human HepG2 cells assessed as inhibition of cell viability incubated for 48 hrs by MTT assay; assay type: functional, cell-based; details: HepG2, 48 h
MCF7 = test: Antitumor activity against human MCF7 cells assessed as inhibition of cell viability incubated for 48 hrs by MTT assay; assay type: functional, cell-based; details: MCF7, 48 h
Aspergillus fumigatus [4] = test: Antimicrobial activity against Aspergillus fumigatus incubated for 48 hrs by disc diffusion assay; assay type: functional
Escherichia coli [5] = test: Antimicrobial activity against Escherichia coli incubated for 24 hrs by serial dilution method; assay type: functional
HT-29 = test: Antitumor activity against human HT-29 cells assessed as inhibition of cell viability incubated for 48 hrs by MTT assay; assay type: functional, cell-based; details: HT-29, 48 h
Bacillus cereus [6] = test: Antimicrobial activity against Bacillus cereus incubated for 24 hrs by serial dilution method; assay type: functional
Ehrlich [7] = test: Antitumor activity against mouse EAC cells implanted in Swiss albino mouse assessed as tumor volume at 0.5 mg for 9 days (reference value: 9.85 ml); assay type: functional
Mus musculus [8] = test: Toxicity in mouse EAC cells implanted Swiss albino mouse assessed as WBC count at 0.5 mg for 9 days (reference value: 23.96 10^3/mm3); assay type: organism-based; details: in vivo, 216 h
Mus musculus [9] = test: Toxicity in mouse EAC cells implanted Swiss albino mouse assessed as RBC count at 0.5 mg for 9 days (reference value: 3.69 10^6/mm3); assay type: organism-based; details: in vivo, 216 h
Ehrlich [10] = test: Antitumor activity against mouse EAC cells implanted in Swiss albino mouse assessed as increase in life span at 0.5 mg for 9 days relative to untreated control; assay type: functional
Mus musculus [11] = test: Toxicity in mouse EAC cells implanted Swiss albino mouse assessed as hemoglobin level at 0.5 mg for 9 days (reference value: 8.15 g/dl); assay type: organism-based; details: in vivo, 216 h
Ehrlich [12] = test: Antitumor activity against mouse EAC cells implanted in Swiss albino mouse assessed as mean survival time at 0.5 mg for 9 days (reference value: 14.5 day); assay type: functional
[13] = Binding affinity to DNA (unknown origin) assessed as reduction in absorption maxima for methyl green/DNA complex incubated for 24 hrs by methyl green/DNA displacement assay
Aspergillus fumigatus [14] = test: Antimicrobial activity against Aspergillus fumigatus incubated for 48 hrs by serial dilution method; assay type: functional
WI-38 = test: Cytotoxicity in human WI38 cells assessed as inhibition of cell viability incubated for 48 hrs by MTT assay; assay type: cell-based; details: WI-38, 48 h

Compound	diameter of the inhibition zone (DIZ) (Candida albicans)	diameter of the inhibition zone (DIZ) (Escherichia coli [1])	diameter of the inhibition zone (DIZ) (Bacillus cereus [2])	diameter of the inhibition zone (DIZ) (Staphylococcus aureus)	INH [3]	IC50 (HepG2)	IC50 (MCF7)	diameter of the inhibition zone (DIZ) (Aspergillus fumigatus [4])	MIC (Escherichia coli [5])	IC50 (HT-29)	MIC (Bacillus cereus [6])	Activity (Ehrlich [7])	Activity (Mus musculus [8])	Activity (Mus musculus [9])	ILS (Ehrlich [10])	Activity (Mus musculus [11])	MST (Ehrlich [12])	IC50 [13]	MIC (Aspergillus fumigatus [14])	IC50 (WI-38)
CCOC(=O)C1(C(C)=O)N=Nc2sc3c(c2C1=O)CCCCC3 (configuration not stated)	5 mm	17 mm	5 mm	<2 mm	3 mm	91.2 µM	50.2 µM	<2 mm	934 µM (≈ 312 µg/mL)	78.6 µM										
CCOC(=O)c1c(NC(=O)CC#N)sc2c1CCCCC2	14 mm	<2 mm	<2 mm	<2 mm	2 mm	> 100 µM	60.4 µM	<2 mm		> 100 µM										
CCOC(=O)C(=NNc1sc2c(c1C(=O)OCC)CCCCC2)C(=O)OCC	<2 mm	<2 mm	<2 mm	5 mm	< 2 mm	76.3 µM	54 µM	<2 mm		86.8 µM										
Nc1nc2sc3c(c2c(=O)n1N)CCCCC3	<2 mm	11 mm	17 mm	5 mm	< 2 mm	82.7 µM	35.8 µM	<2 mm		51.6 µM	1250 µM (≈ 313 µg/mL)									
CCOC(=O)c1c(NC(=O)CC(C)=O)sc2c1CCCCC2	<2 mm	<2 mm	<2 mm	<2 mm	< 2 mm	89.7 µM	62.8 µM	<2 mm		> 100 µM										
O=c1[nH]cc(F)c(=O)[nH]1 [FLUOROURACIL]						6.9 µM	5.7 µM			4.6 µM		1.6 mL	8.86 ×10³ /mm3	5.21 ×10⁶ /mm3	237.9%	12.96 g/dL	49 days			
CC(=O)c1c(O)c2c3c(sc2[nH]c1=O)CCCCC3	9 mm	12 mm	9 mm	8 mm	5 mm	54.9 µM	24.9 µM	24 mm		47.2 µM								56.3 µM	563 µM (≈ 156 µg/mL)	
CCOC(=O)/C(C#N)=N/Nc1sc2c(c1C(=O)OCC)CCCCC2	5 mm	<2 mm	5 mm	7 mm	4 mm	> 100 µM	70.9 µM	<2 mm		92.8 µM										
CC(=O)C1(C(=O)c2ccccc2)N=Nc2sc3c(c2C1=O)CCCCC3 (configuration not stated)	<2 mm	<2 mm	16 mm	5 mm	11 mm	14.1 µM	11.8 µM	<2 mm		9.7 µM	853 µM (≈ 313 µg/mL)	2.55 mL	7.95 ×10³ /mm3	5.16 ×10⁶ /mm3	198.62%	12.92 g/dL	43.3 days	21.4 µM		63.3 µM
CCOC(=O)c1c(N/N=C2\C(=O)NN=C2C)sc2c1CCC2	8 mm	<2 mm	<2 mm	7 mm	< 2 mm	92.4 µM	57.2 µM	<2 mm		84.5 µM										
CCOC(=O)c1c(N/N=C(\C(C)=O)C(=O)c2ccccc2)sc2c1CCCCC2	11 mm	<2 mm	<2 mm	<2 mm	3 mm	71.6 µM	36.9 µM	18 mm		94.7 µM									758 µM (≈ 313 µg/mL)	
COc1cccc2c1C(=O)c1c(O)c3c(c(O)c1C2=O)C[C@@](O)(C(=O)CO)C[C@@H]3O[C@H]1C[C@H](N)[C@H](O)[C@H](C)O1 [DOXORUBICIN]																		32.4 µM		
CCOC(=O)c1c(N/N=C2\C(=O)NN=C2C)sc2c1CCCCC2	10 mm	<2 mm	<2 mm	<2 mm	< 2 mm	42.3 µM	52.4 µM	<2 mm		88.1 µM										
NNC(=O)c1c(NN=C2C(=O)NNC2=O)sc2c1CCCCC2	<2 mm	<2 mm	<2 mm	<2 mm	6 mm	32.6 µM	28.7 µM	<2 mm		49.4 µM										
CCOC(=O)/C(C#N)=N/Nc1sc2c(c1C(=O)OCC)CCC2	<2 mm	7 mm	7 mm	11 mm	8 mm	58.2 µM	45.5 µM	<2 mm		72.1 µM										
CCOC(=O)c1c(N/N=C(\C(C)=O)C(=O)c2ccccc2)sc2c1CCC2	<2 mm	7 mm	14 mm	9 mm	3 mm	28.4 µM	13.7 µM	2 mm		57.4 µM		3.53 mL	9.62 ×10³ /mm3	4.79 ×10⁶ /mm3	130.95%	11.74 g/dL	33.5 days	29.8 µM		67.8 µM
NNC(=O)c1c(N/N=C2/C(=O)NN=C2N)sc2c1CCCCC2	<2 mm	<2 mm	<2 mm	<2 mm	9 mm	35.4 µM	18.3 µM	<2 mm		41.2 µM										
GENTAMICIN											0.31 µM									
CCOC(=O)c1c(-n2cnnn2)sc2c1CCCCC2	<2 mm	6 mm	9 mm	3 mm	< 2 mm	> 100 µM	62.5 µM	<2 mm		> 100 µM										
CCOC(=O)C(=NNc1sc2c(c1C(=O)OCC)CCC2)C(=O)OCC	<2 mm	7 mm	5 mm	9 mm	< 2 mm	> 100 µM	> 100 µM	<2 mm		> 100 µM										
NNC(=O)c1c(NN=C2C(=O)NNC2=O)sc2c1CCC2	<2 mm	<2 mm	<2 mm	<2 mm	8 mm			17 mm											1010 µM (≈ 313 µg/mL)	
CC1=NNC(=O)/C1=N\Nc1sc2c(c1C(=O)NN)CCCCC2	<2 mm	<2 mm	<2 mm	<2 mm	5 mm	81.7 µM	41.2 µM	<2 mm		66.7 µM										
N#Cc1c(O)c2c3c(sc2[nH]c1=O)CCCCC3	<2 mm	3 mm	3 mm	<2 mm	< 2 mm	22.7 µM	19.1 µM	8 mm		27.3 µM										
Oc1cc(O)c2c(c1)O[C@H](c1ccc(O)c(O)c1)[C@@H](O)C2					2 mm															
